Type in all cases: biochemical
In one experiment the target is T1, Aurora-B (Homo sapiens, UniProt Q96GD4).
T1 construct: host or cells: Sf9 insect cells (baculovirus)
Nature of the experiment: Radiometric protein kinase assay, Aurora-B. Conditions: 1 μM ATP; read-out: Inhibitory activity (IC50:μM) Aurora-B. An excerpt: (§1) All protein kinases were expressed in Sf9 insect cells as human recombinant GST-fusion proteins or His-tagged proteins by means of the baculovirus expression system. Kinases were purified by affinity chromatography using either GSH-agarose (Sigma) or Ni-NTH-agarose (Qiagen). The purity of each kinase was checked by SDS-PAGE/silver staining and the identity of each kinase was verified by western blot analysis with kinase specific antibodies or by mass spectroscopy.
(§2) A radiometric protein kinase assay (^33PanQinase® Activity Assay) was used for measuring the kinase activity of the 24 protein kinases. All kinase assays were performed in 96-well FlashPlates™ from Perkin Elmer (Boston, Mass., USA) in a 50 μl reaction volume. The reaction cocktail was pipetted in 4 steps in the following order: • 20 μl of assay buffer • 5 μl of ATP solution (in H2O) • 5 μl of test compound (in 10% DMSO) • 10 μl of substrate/10 […] of enzyme solution (premixed)
(§3) The assay for all enzymes contained 60 mM HEPES-NaOH, pH 7.5, 3 mM MgCl2, 3 mM MnCl2, 3 μM Na-orthovanadate, 1.2 mM DTT, 50 μg/ml PEG20000, 1 μM [γ-^33P]-ATP (approx. 5×10^05 cpm per well).
(§4) For the 24 kinase assays, the following amounts of enzyme and substrate were used per well:
(§5) The reaction cocktails were incubated at 30° C. for 80 minutes. The reaction was stopped with 50 μl of 2% (v/v) H3PO4, plates were aspirated and washed two times with 200 μl of 0.9% (w/v) NaCl or 200 μl H2O. Incorporation of ^33Pi was determined with a microplate scintillation counter (Microbeta Trilux, Wallac).
(§6) The median value of the counts in column 1 (n=8) of each assay plate was defined as “low control”. This value reflects unspecific binding of radioactivity to the plate in the absence of a protein kinase but in the presence of the substrate. The median value of the counts in column 7 of each assay plate (n=8) was taken as the “high control”, i.e. full activity in the absence of any inhibitor. The difference between high and low control was taken as 100% activity.
(§7) As part of the data evaluation the low control value from a particular plate was subtracted from the high control value as well as from all 80 “compound values” of the corresponding plate. The residual activity (in %) for each well of a particular plate was calculated by using the following formula: Res. Activity (%)=100×[(cpm of compound−low control)/(high control−low control)]
(§8) The residual activities for each concentration and the compound IC50 values were calculated using Quattro Workflow V2.1.0.0 (Quattro Research GmbH, Munich, Germany; www.quattro-research.com). The model used was “Sigmoidal response (variable slope)” with parameters “top” fixed at 100% and “bottom” at 0%.

Another experiment addresses T2, CDK4/CycD1 (Homo sapiens, UniProt P11802).
T2 construct: host or cells: Sf9 insect cells (baculovirus)
Nature of the experiment: Radiometric protein kinase assay, CDK4/CycD1. As to conditions: 1 μM ATP; read-out: Inhibitory activity (IC50:μM) CDK4/CycD1.
Excerpt: as §1, §2, §3, §4, §5, §6, §7, §8

In another experiment the target is T3, EGF-R (Homo sapiens, UniProt P00533).
T3 construct: host or cells: Sf9 insect cells (baculovirus)
T3 sequence (P00533 25-1210): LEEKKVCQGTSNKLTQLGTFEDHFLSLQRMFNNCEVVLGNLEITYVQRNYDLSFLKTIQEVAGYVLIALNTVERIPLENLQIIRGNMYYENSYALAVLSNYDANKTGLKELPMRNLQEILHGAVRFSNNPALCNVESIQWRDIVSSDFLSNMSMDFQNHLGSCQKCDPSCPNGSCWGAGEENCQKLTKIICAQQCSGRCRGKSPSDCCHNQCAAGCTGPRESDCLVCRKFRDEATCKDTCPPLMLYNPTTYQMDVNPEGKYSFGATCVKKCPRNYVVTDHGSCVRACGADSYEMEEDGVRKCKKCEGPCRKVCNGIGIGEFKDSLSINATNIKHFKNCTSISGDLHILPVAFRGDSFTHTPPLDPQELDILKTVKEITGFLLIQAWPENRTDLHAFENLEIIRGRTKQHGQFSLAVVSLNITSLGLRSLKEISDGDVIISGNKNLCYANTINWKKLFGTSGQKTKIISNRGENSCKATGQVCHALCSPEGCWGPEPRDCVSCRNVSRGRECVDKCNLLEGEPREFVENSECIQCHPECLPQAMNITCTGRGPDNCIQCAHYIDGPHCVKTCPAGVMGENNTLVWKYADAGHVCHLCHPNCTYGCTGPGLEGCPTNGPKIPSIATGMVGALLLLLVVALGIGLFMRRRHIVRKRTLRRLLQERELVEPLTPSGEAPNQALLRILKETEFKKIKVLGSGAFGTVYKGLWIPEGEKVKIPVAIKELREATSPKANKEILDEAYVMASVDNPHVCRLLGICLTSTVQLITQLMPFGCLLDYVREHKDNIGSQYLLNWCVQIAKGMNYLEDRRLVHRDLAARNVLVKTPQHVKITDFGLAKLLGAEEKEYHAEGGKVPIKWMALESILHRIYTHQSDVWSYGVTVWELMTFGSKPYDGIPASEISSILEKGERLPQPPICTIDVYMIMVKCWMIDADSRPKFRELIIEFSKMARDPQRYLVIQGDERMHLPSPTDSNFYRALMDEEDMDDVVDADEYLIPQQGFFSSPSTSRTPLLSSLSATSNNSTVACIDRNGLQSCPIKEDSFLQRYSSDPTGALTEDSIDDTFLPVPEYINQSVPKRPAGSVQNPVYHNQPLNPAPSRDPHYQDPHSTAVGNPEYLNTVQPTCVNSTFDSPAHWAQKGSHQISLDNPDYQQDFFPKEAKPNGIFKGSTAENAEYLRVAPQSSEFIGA
Nature of the experiment: Radiometric protein kinase assay, EGF-R. Conditions: 1 μM ATP; read-out: Inhibitory activity (IC50:μM) EGF-R.
Excerpt: as §1, §2, §3, §4, §5, §6, §7, §8

The next experiment deals with T4, IGF1-R (Homo sapiens, UniProt P08069).
T4 construct: host or cells: Sf9 insect cells (baculovirus)
Nature of the experiment: Radiometric protein kinase assay, IGF1-R. Conditions: 1 μM ATP; read-out: Inhibitory activity (IC50:μM) IGF1-R.
Excerpt: as §1, §2, §3, §4, §5, §6, §7, §8

The next experiment concerns the target T5, VEGF-R3 (Homo sapiens, UniProt P35916).
T5 construct: host or cells: Sf9 insect cells (baculovirus)
In words: Radiometric protein kinase assay, VEGF-R3. As to conditions: 1 μM ATP; read-out: Inhibitory activity (IC50:μM) VEGF-R3.
Excerpt: as §1, §2, §3, §4, §5, §6, §7, §8

Another experiment has as its target T6, MET (Homo sapiens, UniProt P08581).
T6 construct: host or cells: Sf9 insect cells (baculovirus)
Nature of the experiment: Radiometric protein kinase assay, MET. Conditions: 1 μM ATP; read-out: Inhibitory activity (IC50:μM) MET.
Excerpt: as §1
(§9) A radiometric protein kinase assay (^33PanQinase® Activity Assay) was used for measuring the kinase activity of the 24 protein kinases. All kinase assays were performed in 96-well FlashPlates™ from Perkin Elmer (Boston, Mass., USA) in a 50 μl reaction volume. The reaction cocktail was pipetted in 4 steps in the following order: • 20 μl of assay buffer • 5 μl of ATP solution (in H2O) • 5 μl of test compound (in 10% DMSO) • 10 μl of substrate/10 […] of enzyme solution (premixed) […]
(§10) The reaction cocktails were incubated at 30° C. for 80 minutes. […] Incorporation of ^33Pi was determined with a microplate scintillation counter (Microbeta Trilux, Wallac).
(§11) The median value of the counts in column 1 (n=8) of each assay plate was defined as “low control”. This value reflects unspecific binding of radioactivity to the plate in the absence of a protein kinase but in the presence of the substrate. […]
as §7
(§12) The residual activities for each concentration and the compound IC50 values were calculated using Quattro Workflow V2.1.0.0 (Quattro Research GmbH, Munich, Germany; www.quattro-research.com). […]

Another experiment addresses T7, SAK (Homo sapiens, UniProt O00444).
T7 construct: host or cells: Sf9 insect cells (baculovirus)
T7 sequence (O00444 1-970): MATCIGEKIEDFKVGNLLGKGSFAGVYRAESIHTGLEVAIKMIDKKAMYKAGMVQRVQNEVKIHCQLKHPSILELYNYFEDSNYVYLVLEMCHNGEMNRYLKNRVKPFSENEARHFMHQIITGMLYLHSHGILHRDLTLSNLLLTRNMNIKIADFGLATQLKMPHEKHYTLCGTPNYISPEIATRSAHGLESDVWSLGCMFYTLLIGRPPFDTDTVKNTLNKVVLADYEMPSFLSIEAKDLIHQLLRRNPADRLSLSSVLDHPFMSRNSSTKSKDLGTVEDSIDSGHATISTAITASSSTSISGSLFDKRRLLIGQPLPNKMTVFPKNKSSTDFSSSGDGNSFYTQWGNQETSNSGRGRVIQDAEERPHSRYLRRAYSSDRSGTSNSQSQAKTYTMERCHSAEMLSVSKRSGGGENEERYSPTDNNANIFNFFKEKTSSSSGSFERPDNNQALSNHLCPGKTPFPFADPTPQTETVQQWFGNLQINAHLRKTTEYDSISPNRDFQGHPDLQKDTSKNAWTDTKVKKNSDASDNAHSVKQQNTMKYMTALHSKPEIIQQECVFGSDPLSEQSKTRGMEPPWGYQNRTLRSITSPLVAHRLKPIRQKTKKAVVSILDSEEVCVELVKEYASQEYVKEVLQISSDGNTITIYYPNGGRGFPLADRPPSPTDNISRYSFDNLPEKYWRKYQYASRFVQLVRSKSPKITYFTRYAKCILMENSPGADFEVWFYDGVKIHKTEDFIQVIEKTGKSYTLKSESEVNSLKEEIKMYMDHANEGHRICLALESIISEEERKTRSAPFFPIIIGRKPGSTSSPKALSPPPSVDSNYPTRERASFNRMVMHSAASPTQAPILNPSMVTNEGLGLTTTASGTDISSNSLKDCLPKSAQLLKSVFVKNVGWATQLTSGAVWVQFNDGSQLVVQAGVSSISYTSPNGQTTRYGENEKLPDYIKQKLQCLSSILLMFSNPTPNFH
In words: Radiometric protein kinase assay, SAK. As to conditions: 1 μM ATP; read-out: Inhibitory activity (IC50:μM) SAK.
Excerpt: as §1, §2, §3, §4, §5, §6, §7, §8

The next experiment deals with T8, TIE2 (Homo sapiens, UniProt Q02763).
T8 construct: host or cells: Sf9 insect cells (baculovirus)
T8 sequence (Q02763 23-1124): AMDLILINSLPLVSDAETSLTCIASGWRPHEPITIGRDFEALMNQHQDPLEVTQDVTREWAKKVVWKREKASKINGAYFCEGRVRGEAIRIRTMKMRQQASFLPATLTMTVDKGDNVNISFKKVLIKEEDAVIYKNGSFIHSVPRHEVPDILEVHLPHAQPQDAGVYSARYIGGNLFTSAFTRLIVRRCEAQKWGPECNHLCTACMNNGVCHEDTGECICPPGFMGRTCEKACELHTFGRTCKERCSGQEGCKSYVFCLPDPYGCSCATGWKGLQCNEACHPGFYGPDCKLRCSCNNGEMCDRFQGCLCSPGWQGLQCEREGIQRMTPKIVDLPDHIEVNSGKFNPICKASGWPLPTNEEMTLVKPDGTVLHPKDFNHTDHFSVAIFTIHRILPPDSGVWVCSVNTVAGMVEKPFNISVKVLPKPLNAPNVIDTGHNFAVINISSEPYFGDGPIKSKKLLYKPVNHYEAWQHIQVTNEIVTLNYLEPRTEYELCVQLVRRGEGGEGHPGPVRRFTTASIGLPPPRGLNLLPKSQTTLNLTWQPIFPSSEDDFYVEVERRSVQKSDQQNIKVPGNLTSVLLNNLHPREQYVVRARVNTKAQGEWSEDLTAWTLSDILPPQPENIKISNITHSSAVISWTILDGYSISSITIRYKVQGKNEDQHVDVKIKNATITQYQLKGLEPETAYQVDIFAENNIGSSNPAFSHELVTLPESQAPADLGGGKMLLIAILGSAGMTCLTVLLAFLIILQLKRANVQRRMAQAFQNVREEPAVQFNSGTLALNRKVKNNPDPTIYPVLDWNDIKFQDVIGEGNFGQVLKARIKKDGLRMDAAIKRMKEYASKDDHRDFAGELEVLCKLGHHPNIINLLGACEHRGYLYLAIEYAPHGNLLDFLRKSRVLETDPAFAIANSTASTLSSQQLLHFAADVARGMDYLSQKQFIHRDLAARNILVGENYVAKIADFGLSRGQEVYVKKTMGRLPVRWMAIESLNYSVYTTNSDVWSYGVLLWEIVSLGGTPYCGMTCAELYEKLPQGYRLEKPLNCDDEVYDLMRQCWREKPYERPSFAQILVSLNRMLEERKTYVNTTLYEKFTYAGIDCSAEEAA
In words: Radiometric protein kinase assay, TIE2. As to conditions: 1 μM ATP; read-out: Inhibitory activity (IC50:μM) TIE2.
Excerpt: as §1, §9, §10, §11, §7, §12

The target of another experiment is T9, SRC (Homo sapiens, UniProt P12931).
T9 construct: host or cells: Sf9 insect cells (baculovirus)
T9 sequence (P12931 whole entry): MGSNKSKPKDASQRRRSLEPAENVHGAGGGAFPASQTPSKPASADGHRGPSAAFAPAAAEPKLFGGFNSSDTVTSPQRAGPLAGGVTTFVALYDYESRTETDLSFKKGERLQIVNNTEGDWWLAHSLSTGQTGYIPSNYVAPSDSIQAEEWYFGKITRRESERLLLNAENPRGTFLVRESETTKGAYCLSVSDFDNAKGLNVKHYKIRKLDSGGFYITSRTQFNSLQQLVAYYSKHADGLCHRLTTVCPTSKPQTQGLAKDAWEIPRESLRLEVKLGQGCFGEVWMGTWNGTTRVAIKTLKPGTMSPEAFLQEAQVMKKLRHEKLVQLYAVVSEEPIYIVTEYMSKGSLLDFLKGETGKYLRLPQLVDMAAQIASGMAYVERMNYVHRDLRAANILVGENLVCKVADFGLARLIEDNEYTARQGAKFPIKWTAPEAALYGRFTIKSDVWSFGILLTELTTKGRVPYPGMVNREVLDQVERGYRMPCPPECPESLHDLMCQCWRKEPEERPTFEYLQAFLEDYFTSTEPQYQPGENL
Nature of the experiment: Radiometric protein kinase assay, SRC. As to conditions: 1 μM ATP; read-out: Inhibitory activity (IC50:μM) SRC.
Excerpt: as §1, §2, §3, §4, §5, §6, §7, §8

T6 sequence (P08581 25-1390): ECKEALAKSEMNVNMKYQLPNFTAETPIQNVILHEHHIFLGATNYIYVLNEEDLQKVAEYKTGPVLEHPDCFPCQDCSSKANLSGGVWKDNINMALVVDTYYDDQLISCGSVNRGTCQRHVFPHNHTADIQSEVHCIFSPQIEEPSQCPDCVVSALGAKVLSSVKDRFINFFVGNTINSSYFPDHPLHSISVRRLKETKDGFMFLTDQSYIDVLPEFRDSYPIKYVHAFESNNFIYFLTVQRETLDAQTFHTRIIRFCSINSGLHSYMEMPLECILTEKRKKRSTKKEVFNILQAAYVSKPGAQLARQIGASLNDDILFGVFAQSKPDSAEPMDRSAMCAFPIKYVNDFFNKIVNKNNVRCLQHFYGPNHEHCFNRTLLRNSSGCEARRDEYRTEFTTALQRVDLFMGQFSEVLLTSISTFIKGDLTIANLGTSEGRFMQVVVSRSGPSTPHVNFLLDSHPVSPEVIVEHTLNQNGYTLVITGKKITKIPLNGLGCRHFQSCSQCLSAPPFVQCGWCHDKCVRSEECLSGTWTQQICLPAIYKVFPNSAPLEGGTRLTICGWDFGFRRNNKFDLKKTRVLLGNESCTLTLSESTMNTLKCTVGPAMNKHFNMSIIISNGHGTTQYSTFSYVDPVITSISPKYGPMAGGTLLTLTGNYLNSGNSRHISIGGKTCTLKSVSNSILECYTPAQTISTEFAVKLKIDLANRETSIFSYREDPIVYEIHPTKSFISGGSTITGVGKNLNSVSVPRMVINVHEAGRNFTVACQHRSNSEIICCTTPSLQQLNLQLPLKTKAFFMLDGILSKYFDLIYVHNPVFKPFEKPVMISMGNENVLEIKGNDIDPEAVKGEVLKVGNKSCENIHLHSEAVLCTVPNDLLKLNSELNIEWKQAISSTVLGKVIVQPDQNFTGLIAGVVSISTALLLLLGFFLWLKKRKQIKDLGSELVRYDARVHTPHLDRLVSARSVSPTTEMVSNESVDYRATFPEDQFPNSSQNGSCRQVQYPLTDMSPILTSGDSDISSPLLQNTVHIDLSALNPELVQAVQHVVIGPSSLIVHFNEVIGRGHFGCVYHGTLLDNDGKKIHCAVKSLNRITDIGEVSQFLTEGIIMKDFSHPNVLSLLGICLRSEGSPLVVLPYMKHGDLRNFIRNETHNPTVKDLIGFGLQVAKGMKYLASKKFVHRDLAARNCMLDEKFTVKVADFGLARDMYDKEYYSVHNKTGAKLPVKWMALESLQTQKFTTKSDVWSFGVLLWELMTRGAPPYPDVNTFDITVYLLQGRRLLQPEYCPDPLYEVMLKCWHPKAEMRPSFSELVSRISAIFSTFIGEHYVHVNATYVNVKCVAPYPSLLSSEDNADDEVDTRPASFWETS
T2 sequence (P11802 whole entry): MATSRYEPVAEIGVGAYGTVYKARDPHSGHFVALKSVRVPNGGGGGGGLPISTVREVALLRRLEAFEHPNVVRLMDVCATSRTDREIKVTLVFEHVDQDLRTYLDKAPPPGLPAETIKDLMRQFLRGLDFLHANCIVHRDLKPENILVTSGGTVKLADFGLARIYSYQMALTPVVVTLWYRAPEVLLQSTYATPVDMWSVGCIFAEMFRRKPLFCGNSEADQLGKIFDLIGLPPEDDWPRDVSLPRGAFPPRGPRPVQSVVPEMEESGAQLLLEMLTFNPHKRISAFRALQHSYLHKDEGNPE
T2 sequence (P24385 whole entry partner): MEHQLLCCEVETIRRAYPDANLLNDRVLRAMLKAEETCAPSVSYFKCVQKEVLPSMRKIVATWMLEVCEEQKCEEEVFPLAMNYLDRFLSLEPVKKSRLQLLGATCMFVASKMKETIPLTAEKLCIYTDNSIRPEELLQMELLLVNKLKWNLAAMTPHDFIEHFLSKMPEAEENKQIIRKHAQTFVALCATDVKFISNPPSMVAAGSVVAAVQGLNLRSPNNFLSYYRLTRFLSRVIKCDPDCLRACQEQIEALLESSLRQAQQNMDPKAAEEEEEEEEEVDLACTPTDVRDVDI

On to `COC1CC/C=C/C[C@H](c2ccccc2)OC(=O)c2c(O)cc(O)c(Cl)c2CC(=O)C1` (some centres unmarked) [A-2], for which the IC50 on Aurora-B worked out at 16 µM; at CDK4/CycD1 it was 50 µM; on EGF-R it was 10 µM; at IGF1-R, 16 µM; on VEGF-R3 it was 40 µM; at MET, 32 µM. Moreover, the values for the IC50 at SAK and on TIE2 were 17 µM and 16 µM, respectively.

With `O=C1Cc2c(Cl)c(O)cc(O)c2C(=O)O[C@H](c2ccccc2)C/C=C/CCC(Cl)C1` (some centres unmarked) [A-3], the IC50 at Aurora-B is 14 µM; on CDK4/CycD1, 30 µM; on EGF-R, 14 µM; at IGF1-R it was 19 µM; on SRC, 14 µM; at VEGF-R3, 19 µM. The IC50 at MET came out at 29 µM; on SAK it was 25 µM; at TIE2, 15 µM.

Take `CC(C)[C@@H]1CC2OC2CC/C=C/C(=O)Cc2c(Cl)c(O)cc(O)c2C(=O)O1` (some centres unmarked) [A-4]: the IC50 worked out at 36 µM at Aurora-B; 48 µM on CDK4/CycD1; 22 µM on EGF-R; 13 µM on IGF1-R; 12 µM at SRC; 31 µM on VEGF-R3. The IC50 at SAK came out at 19 µM.

For `O=C1/C=C/CCC2OC2C[C@H](c2ccccc2)OC(=O)c2c(O)cc(O)c(Cl)c2C1` (some centres unmarked) [A-5], the IC50 at CDK4/CycD1 was determined as 45 µM; at EGF-R it was 16 µM; on SRC, 12 µM; at VEGF-R3 it was 31 µM; at SAK it was 20 µM.

Take `O=C1/C=C/CCC2OC2C[C@@H](Cc2ccccc2)OC(=O)c2c(O)cc(O)cc2C1` (some centres unmarked) [A-6]: the IC50 on Aurora-B was 16 µM; at CDK4/CycD1, 37 µM; at EGF-R it was 32 µM; at IGF1-R, 21 µM; on SRC it was 20 µM; on VEGF-R3 it was 34 µM. Also, the IC50 was found to be 36 µM at MET, 17 µM on SAK and 25 µM on TIE2.

(Values after patent US8450305B2, “Macrocyclic compounds useful as inhibitors of kinases and HSP90” (Universite de Strasbourg, priority 2006, dated 2013).)
